Patent US8158580B2, “Pharmaceutical compositions containing a glycopeptide antibiotic and a cyclodextrin” (Theravance, Inc., priority 2000, dated 2012)
Read-outs that look alike come from different tables or passages of the source.

Details: female rats; for BUN / Creatinine: 50 mg/kg intravenous infusion, serum at 24 hours; for % Recovered (as unchanged parent) Kidney / % Recovered (as unchanged parent) Liver / % Recovered (as unchanged parent) Urine / Serum Conc.: 2-minute intravenous infusion, 24 hours, Mean (SD)
Description: Female Sprague-Dawley rates (three per group) were dosed with Compound A (50 mg/kg) formulated in either hydroxypropyl-β-cyclodextrin or 5% dextrose/water or vehicle. The indicated doses were administered in a volume of 10 mL/kg via a 2-minute intravenous infusion. At 24 hours, the animals were sacrificed and serum and tissue samples collected.

[1] = formulation 1% (w/v) CD (hydroxypropyl-β-cyclodextrin)
[2] = formulation 1% CD (hydroxypropyl-β-cyclodextrin), 50 mg/kg
[3] = formulation 5% (w/v) CD (hydroxypropyl-β-cyclodextrin)
[4] = formulation 5% CD (hydroxypropyl-β-cyclodextrin), 50 mg/kg
[5] = formulation 25% (w/v) CD (hydroxypropyl-β-cyclodextrin)
[6] = formulation 25% CD (hydroxypropyl-β-cyclodextrin), 50 mg/kg
[7] = formulation D5W (aqueous 5% dextrose solution, no cyclodextrin)
[8] = formulation D5W (aqueous 5% dextrose solution, no cyclodextrin), 50 mg/kg
[9] = formulations containing a cyclodextrin compared with formulation without, 50 mg/kg

SMILES: CCCCCCCCCCNCCNC1(C)CC(OC2C(Oc3c4cc5cc3Oc3ccc(cc3Cl)C(O)C3NC(=O)C(NC(=O)C5NC(=O)C(CC(N)=O)NC(=O)C(NC(=O)C(CC(C)C)NC)C(O)c5ccc(c(Cl)c5)O4)c4ccc(O)c(c4)-c4c(cc(O)c(CNCP(=O)(O)O)c4O)C(C(=O)O)NC3=O)OC(CO)C(O)C2O)OC(C)C1O (centres unmarked) [Compound A]
- BUN [1]: 26 ± 5 mg/dL
- Creatinine [1]: 0.34 ± 0.08 mg/dL
- % Recovered (as unchanged parent) Kidney [2]: 5.68 (2.49) %
- % Recovered (as unchanged parent) Liver [2]: 8.47 (0.46) %
- % Recovered (as unchanged parent) Urine [2]: 17.45 (6.92) %
- Serum Conc. [2]: 17.1 (12.1) μg/mL
- BUN [3]: 18 ± 5 mg/dL
- Creatinine [3]: 0.31 ± 0.07 mg/dL
- % Recovered (as unchanged parent) Kidney [4]: 2.08 (0.43) %
- % Recovered (as unchanged parent) Liver [4]: 4.89 (0.81) %
- % Recovered (as unchanged parent) Urine [4]: 40.51 (18.57) %
- Serum Conc. [4]: 1.66 (0.33) μg/mL
- BUN [5]: 13 ± 2 mg/dL
- Creatinine [5]: 0.26 ± 0.02 mg/dL
- % Recovered (as unchanged parent) Kidney [6]: 0.62 (0.12) %
- % Recovered (as unchanged parent) Liver [6]: 1.90 (0.32) %
- % Recovered (as unchanged parent) Urine [6]: 90.91 (8.39) %
- Serum Conc. [6]: 0.86 (0.19) μg/mL
- BUN [7]: 67 ± 2 mg/dL
- Creatinine [7]: 0.72 ± 0.08 mg/dL
- % Recovered (as unchanged parent) Kidney [8]: 17.82 (4.94) %
- % Recovered (as unchanged parent) Liver [8]: 14.19 (3.41) %
- % Recovered (as unchanged parent) Urine [8]: 12.61 (4.60) %
- Serum Conc. [8]: 59.8 (27.1) μg/mL
- liver and kidney accumulation [9]: significantly lower
- urinary recovery [9]: significantly higher
